# Laboratory results reported in paper PMC7156458, “Synthetic biology based construction of biological activity-related library of fungal decalin-containing diterpenoid pyrones” (Nature Communications, 2020).
# Read-outs that look alike come from different tables or passages of the source.
# What was measured:
# Type in all cases: cell-based
# DL1 cells = assay: cytotoxicity in Drosophila DL1 cells; conditions: DL1 cells; for % viability, viability 1: replicate 1, relative to DMSO 1%; for % viability, viability 2: replicate 2, relative to DMSO 1%; for IC50: cytotoxicity
# Description: (§1) We screened the DDPs on the Drosophila assay system for cytotoxicity, inhibitory activity of innate immune signalling and insecticidal activity. The cytotoxicity of the DDPs was evaluated using two cell lines, embryonic macrophage-derived DL1 cells[58]–[60] and larval blood cell-derived l(2)mbn cells, and their IC50 values are listed in Supplementary Table 23.
# l(2)mbn cells = assay: cytotoxicity in Drosophila l(2)mbn cells; conditions: for Luminescence Raw1: replicate 1; for % viability, viability 1: replicate 1, relative to DMSO 1%; for Luminescence Raw2: replicate 2; for % viability, viability 2: replicate 2, relative to DMSO 1%; for IC50: cytotoxicity
# Description: as §1
# [1] = tested on: human immunodeficiency virus-1 (HIV-1); assay: anti-HIV MAGI assay; conditions: Human immunodeficiency virus 1, MAGI, anti-HIV; average of numeric determinations; read-out: Avg. EC50
# From the text: We examined the inhibitory activities of DDPs against various species of bacteria (both gram-negative and gram-positive bacteria), fungi and viruses. […] In contrast, preliminary screening of the DDPs for anti-viral agents with hepatitis B virus (HBV), measles virus (MV), Epstein-Barr virus (EBV), herpes simplex virus (HSV) and human immunodeficiency virus-1 (HIV-1) indicated their selective inhibition of HIV.
# [2] = average of two replicates, read-out: IC50 Average
# [3] = replicate 1, read-out: IC50 (1)
# [4] = replicate 2, read-out: IC50 (2)
smiles,measurement,setting,value
C=C1CCC2C(C)(CCC=C(C)C)C(O)CCC2(C)C1Cc1c(O)c(C)c(C)oc1=O (stereo not drawn) [Compound 4],Luminescence Raw1,"DL1 cells; 0.04 µM, replicate 1",2757856
same,"% viability, viability 1",DL1 cells; 0.04 µM,201.087%
same,Luminescence Raw2,"DL1 cells; 0.04 µM, replicate 2",3026942
same,"% viability, viability 2",DL1 cells; 0.04 µM,220.707%
same,Luminescence Raw1,"DL1 cells; 0.2 µM, replicate 1",2720705
same,"% viability, viability 1",DL1 cells; 0.2 µM,198.378%
same,Luminescence Raw2,"DL1 cells; 0.2 µM, replicate 2",3168342
same,"% viability, viability 2",DL1 cells; 0.2 µM,231.017%
same,Luminescence Raw1,"DL1 cells; 1 µM, replicate 1",2448745
same,"% viability, viability 1",DL1 cells; 1 µM,178.548%
same,Luminescence Raw2,"DL1 cells; 1 µM, replicate 2",2704113
same,"% viability, viability 2",DL1 cells; 1 µM,197.168%
same,Luminescence Raw1,"DL1 cells; 4 µM, replicate 1",345570
same,"% viability, viability 1",DL1 cells; 4 µM,25.197%
same,Luminescence Raw2,"DL1 cells; 4 µM, replicate 2",345209
same,"% viability, viability 2",DL1 cells; 4 µM,25.1707%
same,Luminescence Raw1,"DL1 cells; 10 µM, replicate 1",299777
same,"% viability, viability 1",DL1 cells; 10 µM,21.858%
same,Luminescence Raw2,"DL1 cells; 10 µM, replicate 2",341603
same,"% viability, viability 2",DL1 cells; 10 µM,24.9077%
same,Luminescence Raw1,"DL1 cells; 20 µM, replicate 1",287878
same,"% viability, viability 1",DL1 cells; 20 µM,20.9904%
same,Luminescence Raw2,"DL1 cells; 20 µM, replicate 2",302301
same,"% viability, viability 2",DL1 cells; 20 µM,22.0421%
same,IC50,DL1 cells; [2],1540 nM
same,IC50,"DL1 cells; average±SEM, read-out: IC50",1540 ± 80 nM
same,IC50,DL1 cells; [3],1610 nM
same,IC50,DL1 cells; [4],1460 nM
same,Luminescence Raw1,l(2)mbn cells; 0.04 µM,5839335
same,"% viability, viability 1",l(2)mbn cells; 0.04 µM,92.9944%
same,Luminescence Raw2,l(2)mbn cells; 0.04 µM,5201728
same,"% viability, viability 2",l(2)mbn cells; 0.04 µM,82.8402%
same,Luminescence Raw1,l(2)mbn cells; 0.2 µM,5720253
same,"% viability, viability 1",l(2)mbn cells; 0.2 µM,91.0979%
same,Luminescence Raw2,l(2)mbn cells; 0.2 µM,5444207
same,"% viability, viability 2",l(2)mbn cells; 0.2 µM,86.7018%
same,Luminescence Raw1,l(2)mbn cells; 1 µM,5427969
same,"% viability, viability 1",l(2)mbn cells; 1 µM,86.4432%
same,Luminescence Raw2,l(2)mbn cells; 1 µM,5886607
same,"% viability, viability 2",l(2)mbn cells; 1 µM,93.7472%
same,Luminescence Raw1,l(2)mbn cells; 4 µM,5612720
same,"% viability, viability 1",l(2)mbn cells; 4 µM,89.3854%
same,Luminescence Raw2,l(2)mbn cells; 4 µM,6637959
same,"% viability, viability 2",l(2)mbn cells; 4 µM,105.713%
same,Luminescence Raw1,l(2)mbn cells; 10 µM,900951
same,"% viability, viability 1",l(2)mbn cells; 10 µM,14.3481%
same,Luminescence Raw2,l(2)mbn cells; 10 µM,1318179
same,"% viability, viability 2",l(2)mbn cells; 10 µM,20.9927%
same,Luminescence Raw1,l(2)mbn cells; 20 µM,296971
same,"% viability, viability 1",l(2)mbn cells; 20 µM,4.729%
same,Luminescence Raw2,l(2)mbn cells; 20 µM,325456
same,"% viability, viability 2",l(2)mbn cells; 20 µM,5.183%
same,IC50,l(2)mbn cells; [2],6440 nM
same,IC50,"l(2)mbn cells; average±SEM, read-out: IC50",6440 ± 940 nM
same,IC50,l(2)mbn cells; [3],5500 nM
same,IC50,l(2)mbn cells; [4],7390 nM
same,EC50,[1],592 nM
